In US9919941B2, “Multiple uses of amine salts for industrial water treatment” (AMSA, Inc., priority 2012, dated 2018):
Like-named read-outs stand apart in the source and are kept apart here.

Legend:
[1] = system: planktonic microbial population of cooling tower water; assay: time-kill biocidal efficacy, hybrid planktonic-sessile procedure: planktonic population; type: cell-based, natural mixed aerobic microbial population; conditions: for reduction in the total planktonic population / activity at 10 ppm / Planktonic CFU/10 mL, 20-24 h / Planktonic CFU/10 mL, 48-54 h / Planktonic CFU/10 mL, 120 h / Planktonic CFU/10 mL, Total / Planktonic, 20-24 h, % of Control / Planktonic, 48-54 h, % of Control / Planktonic, 120 h, % of Control / Planktonic, Total, % of Control: 10 ppm Compound B, others equimolar; for reduction in the total planktonic population: 110 minutes; for activity at 10 ppm / Planktonic CFU/10 mL, 20-24 h / Planktonic CFU/10 mL, 48-54 h / Planktonic CFU/10 mL, 120 h / Planktonic CFU/10 mL, Total / Planktonic, 20-24 h, % of Control / Planktonic, 48-54 h, % of Control / Planktonic, 120 h, % of Control / Planktonic, Total, % of Control: exposure 110 minutes; for Planktonic CFU/10 mL, 20-24 h: fast growing population; for Planktonic CFU/10 mL, 48-54 h: moderate growth rate population; for Planktonic CFU/10 mL, 120 h: slow growth rate population
Procedure: An experiment was conducted to assess biocidal effectiveness of Compounds A and B and their respective Compounds 13 and 1 anion analogs. Time-kill tests were conducted using a hybrid planktonic-sessile procedure which allowed assessment of biocidal effectiveness against both planktonic and sessile microbial populations. A natural mixed aerobic microbial population in samples collected from an operating cooling tower was used as inoculum for the test. Biocide test concentration for Compound B was 10 ppm. All other products were tested at the equivalent molar concentration. Biocide exposure was 110 minutes. The following procedure was used which generally followed the biocidal testing method of Walter, R. W. and Cooke, L. […] A New Multifunctional Biocide Which Enhances Corrosion Inhibition,” NACE Paper 410, 1997. A water sample was collected from a cooling tower that contained a natural mixed population of microorganisms that grew at different rates when plated on Petrifilm. The populations of cells that grew on Petrifilm in 20-24 hours, 48-54 hours and at 120 hours were treated as separate populations. […] The washers were allowed seven days to develop a biofilm on their surface. Prior to chemical treatment, 10 mL aliquots of the CTW were removed from the beaker and placed into individual exposure test tubes along with a single washer. Test compounds were then added to the individual tubes at equimolar concentrations. All exposure tests including untreated controls were conducted in triplicate (i.e., three washers in separate exposure tubes). After addition of the test compound, the tube was briefly mixed by mild vortexing and again occasionally throughout the exposure time. Determination of residual viable cell population in the bulk water: 1 mL of the water from the exposure tube was plated on petrifilm. A second 1 ml was added to 9 mL tube of Letheen broth and mixed by shaking 10 times. A 1 mL aliquot was plated on petrifilm, a second 1 mL aliquot was added to a 9 ml tube of Butterfields Broth and again shaken 10 times. This serial sequence of plating the dilution and subsequent 1/10 dilution was repeated through 10^-4 to 10^-5 dilution. Determination of colony forming units (CFU) at different incubation times: After plating the various solutions on Petrifilm, the films were incubated at 36° C. for the first 24 hours. At 20 hours the […] read and CFU were recorded. This population was defined as a fast growing population. The […] then incubated for additional time either at 36° C. or room temperature and read at 54 hours. This second population is in addition to the fast growth rate population and was defined as moderate growth rate organisms. Incubation was continued and the […] again after 120 hours. This third population was also treated as separate from the fast and moderate growth rate populations and is referred to as the slow growth rate population. As noted above, each compound was evaluated in triplicate with three separate washers and the results were averaged. Average CFU/mL values were used to calculate total planktonic test population (CFU/10 mL) and total sessile test population (CFU/washer) in each test system.

[2] = copper corrosion inhibition, ASTM G31-72 coupon weight loss
Procedure: Corrosion inhibition studies of various compounds of Formula (I) were conducted according to ASTM method G31-72 (2004). The following is the general test method.
Aqueous solutions of the test compound (900 mL) were prepared with city water for mild steel corrosion studies or a dilute sea salt solution (1000 ppm in deionized water) for copper corrosion studies. The solutions were magnetically stirred at a constant rate in a 1 L beaker and three coupons of either mild steel or copper were suspended in each beaker. After 5 days (steel) or 7 days (copper), the coupons were removed and cleaned according to ASTM method G1-03. Average weight loss was determined for each set of three coupons and then converted to corrosion rate in terms of mils per year (mpy).
The first test of copper corrosion inhibition compared Compound A with Compound 13 (from Table 1), 2-hydroxypropane-1,2,3-tricarboxylic acid, and a commercial inhibitor, Na-TAI.

[3] = calcium carbonate scale inhibition (conductometric titration, supersaturation ratio Sr)
Procedure: To a 100 mL beaker were added 60 mL of HPLC-grade water and 3 mL of 0.1 M calcium chloride. An appropriate amount (0.5-4 mL) of an aqueous solution of the inhibitor compound of Formula (I) to be tested was then added. The solution was magnetically stirred at a constant speed for all experiments. The sample was then titrated with 0.1 M sodium carbonate. After addition of each 0.2 mL aliquot of sodium carbonate titrant, the solution was mixed for 1 min and then the conductivity of the solution measured.
As titrant is added the conductivity increases in a linear fashion. When the supersaturation point is reached, the conductivity decreases and precipitation begins. This is considered the endpoint of the titration. The resulting titration endpoint volumes are used to calculate a relative supersaturation ratio (Sr). This is the ratio of the supersaturation of calcium carbonate in the presence of the compound of Formula (I) being tested to the value of the supersaturation of water without inhibitor (distilled water plus 3 mL of 0.1 M calcium chloride). Thus, compounds with Sr>1 are displaying scale inhibition.
The scale inhibition performance of various compounds of Formula (I) and comparative compounds were compared at the same molar concentration. These compounds were tested at 60 μM concentration except where noted otherwise. Compound numbers are from Table 1.

| Compound | reduction in the total planktonic population [1] [%] | activity at 10 ppm ([1]; 20-24 h incubation, read-out: Planktonic, 20-24 h, % of Control) [%] | activity at 10 ppm ([1]; 48-54 h incubation, read-out: Planktonic, 48-54 h, % of Control) [%] | activity at 10 ppm ([1]; 110 min, total population, read-out: Planktonic, Total, % of Control) [%] | activity at 10 ppm ([1]; 120 h incubation, read-out: Planktonic, 120 h, % of Control) [%] | Planktonic CFU/10 mL, 20-24 h ([1]; 20-24 h incubation) [CFU/10 mL] | Planktonic CFU/10 mL, 48-54 h ([1]; 48-54 h incubation) | Planktonic CFU/10 mL, 120 h ([1]; 120 h incubation) | Planktonic CFU/10 mL, Total ([1]; total population) | Inhibition relative to blank ([2]; 7 days, 17 μM, Table 6) [%] | Sr (supersaturation ratio) ([3]; 60 μM) | Sr (supersaturation ratio) ([3]; 64 μM) | Planktonic, 20-24 h, % of Control ([1]; 20-24 h incubation) [%] | Planktonic, 48-54 h, % of Control ([1]; 48-54 h incubation) [%] | Planktonic, 120 h, % of Control ([1]; 120 h incubation) [%] | Planktonic, Total, % of Control ([1]; total population) [%] | Inhibition relative to blank ([2]; 42 μM, Table 7) [%] | scale inhibition (in words) ([3]; about 60 μM) | biocidal effectiveness compared with parent salt (in words) ([1]; planktonic and sessile populations, same experimental conditions and molar concentration) |
| --- | --- | --- | --- | --- | --- | --- | --- | --- | --- | --- | --- | --- | --- | --- | --- | --- | --- | --- | --- |
| CCCCCCCCCCSCCN.Cl [Compound A, 2-(decylthio)ethanamine hydrochloride] | 97 | 94.9 | 3.6 | 2.9 | 2.8 | 940 | 13,500 CFU/10 mL | 227,000 CFU/10 mL | 241,000 CFU/10 mL | 41 | 1.0 | 1.2 |  |  |  |  |  |  |  |
| CC(=O)O.CCCCCCCCCCOCCCN [Compound B, ethanoic acid salt of aminopropyloxydecane] | 63 |  |  |  |  | 810 | 320,000 CFU/10 mL | 2,780,000 CFU/10 mL | 3,100,000 CFU/10 mL |  | 1.0 |  | 81.7 | 85.0 | 34.6 | 36.8 | 32 | no scale inhibition |  |
| CCCCCCCCCCOCCCN.O=C(O)CC(O)(CC(=O)O)C(=O)O [Compound 1, 2-hydroxypropane-1,2,3-tricarboxylic acid salt of aminopropyloxydecane] |  |  |  |  |  | 970 | 340,000 CFU/10 mL | 2,280,000 CFU/10 mL | 2,620,000 CFU/10 mL |  | 1.4 |  | 97.9 | 90.3 | 28.4 | 31.1 | 54 |  | very similar (within experimental error) to those obtained with Compound B |
